In article PMC12384454, “Study of the Lipophilicity of Tetracyclic Anticancer Azaphenothiazines” (Biomolecules, 2025):
“Also recorded” adds a separate entry of the source.

Tested on: MDA
Assay: not given
Set-up: method as in earlier work
Settings: MTT assay; cited from earlier work
In the case of `O=C(NCCCl)NCCCCN1c2cc(Cl)ccc2Sc2cc3ccccc3nc21` [compound 15], the IC50 is listed as 7.4 ± 1.2 µM.
In the case of `CN(C)CCCN1c2cc(Cl)ccc2Sc2cc3ccccc3nc21` [compound 2], the IC50 is given as 52.1 ± 2.7 µM.
In the case of `CS(=O)(=O)NCCCCN1c2cc(Cl)ccc2Sc2cc3ccccc3nc21` [compound 16], the IC50 is given as under 100 µM.
In the case of `CCOC(=O)NCCCCN1c2cc(Cl)ccc2Sc2cc3ccccc3nc21` [compound 14], the IC50 is given as under 100 µM.
For `CCN(CC)CCN1c2cc(Cl)ccc2Sc2cc3ccccc3nc21` [compound 1], the IC50 is listed as under 100 µM.

Same assay, conditions: selectivity index vs HaCaT; cited from earlier work
For `O=C(NCCCl)NCCCCN1c2cc(Cl)ccc2Sc2cc3ccccc3nc21` [compound 15], the “SI MDA” value is given as 0.1.
In the case of `CN(C)CCCN1c2cc(Cl)ccc2Sc2cc3ccccc3nc21` [compound 2], the “SI MDA” value is given as 1.2.
For `CS(=O)(=O)NCCCCN1c2cc(Cl)ccc2Sc2cc3ccccc3nc21` [compound 16], the “SI MDA” value is listed as 0.2.
For `CCOC(=O)NCCCCN1c2cc(Cl)ccc2Sc2cc3ccccc3nc21` [compound 14], the “SI MDA” value is given as 1.0.
For `CCN(CC)CCN1c2cc(Cl)ccc2Sc2cc3ccccc3nc21` [compound 1], the “SI MDA” value is listed as 1.0.

Tested on: MiaPaCa-2
Assay: not given
Set-up: method as in earlier work
Settings: MTT assay; cited from earlier work
For `O=C(NCCCl)NCCCCN1c2cc(Cl)ccc2Sc2cc3ccccc3nc21` [compound 15], the IC50 is listed as 6.4 ± 2.4 µM.
In the case of `CN(C)CCCN1c2cc(Cl)ccc2Sc2cc3ccccc3nc21` [compound 2], the IC50 is listed as 40.2 ± 0.7 µM.
For `CS(=O)(=O)NCCCCN1c2cc(Cl)ccc2Sc2cc3ccccc3nc21` [compound 16], the IC50 is given as 98.4 ± 5.6 µM.

Same assay, conditions: selectivity index vs HaCaT; cited from earlier work
For `O=C(NCCCl)NCCCCN1c2cc(Cl)ccc2Sc2cc3ccccc3nc21` [compound 15], the “SI MiaPaCa-2” value is given as 0.2.
For `CN(C)CCCN1c2cc(Cl)ccc2Sc2cc3ccccc3nc21` [compound 2], the “SI MiaPaCa-2” value is listed as 1.6.
In the case of `CS(=O)(=O)NCCCCN1c2cc(Cl)ccc2Sc2cc3ccccc3nc21` [compound 16], the “SI MiaPaCa-2” value is listed as 1.0.

Tested on: HCT-116 cells
Assay: not given
Settings: MTT assay; read-out: IC50 HCT116; cited from earlier work
In the case of `O=C(NCCCl)NCCCCN1c2cc(Cl)ccc2Sc2cc3ccccc3nc21` [compound 15], the IC50 is listed as 11300 ± 2200 nM.
For `CN(C)CCCN1c2cc(Cl)ccc2Sc2cc3ccccc3nc21` [compound 2], the IC50 is listed as 1600 nM.
For `CS(=O)(=O)NCCCCN1c2cc(Cl)ccc2Sc2cc3ccccc3nc21` [compound 16], the IC50 is listed as 700 nM.

Same assay, conditions: selectivity index vs HaCaT; cited from earlier work
In the case of `O=C(NCCCl)NCCCCN1c2cc(Cl)ccc2Sc2cc3ccccc3nc21` [compound 15], the “SI HCT116” value is given as 0.1.
For `CS(=O)(=O)NCCCCN1c2cc(Cl)ccc2Sc2cc3ccccc3nc21` [compound 16], the “SI HCT116” value is listed as 143.

Tested on: A549 cells
Assay: not given
Settings: MTT assay; cited from earlier work
For `O=C(NCCCl)NCCCCN1c2cc(Cl)ccc2Sc2cc3ccccc3nc21` [compound 15], the IC50 is listed as 6.98 µM.
In the case of `CN(C)CCCN1c2cc(Cl)ccc2Sc2cc3ccccc3nc21` [compound 2], the IC50 is listed as 8.2 µM.
In the case of `CS(=O)(=O)NCCCCN1c2cc(Cl)ccc2Sc2cc3ccccc3nc21` [compound 16], the IC50 is listed as 30.5 ± 8.3 µM.
In the case of `CCN(CC)CCN1c2cc(Cl)ccc2Sc2cc3ccccc3nc21` [compound 1], the IC50 is listed as 27.2 ± 8.4 µM.

Same assay, conditions: selectivity index vs HaCaT; cited from earlier work
In the case of `CN(C)CCCN1c2cc(Cl)ccc2Sc2cc3ccccc3nc21` [compound 2], the “SI A549” value is given as 7.6.
For `CS(=O)(=O)NCCCCN1c2cc(Cl)ccc2Sc2cc3ccccc3nc21` [compound 16], the “SI A549” value is listed as 3.3.
In the case of `CCOC(=O)NCCCCN1c2cc(Cl)ccc2Sc2cc3ccccc3nc21` [compound 14], the “SI A549” value is given as 1.0.
In the case of `CCN(CC)CCN1c2cc(Cl)ccc2Sc2cc3ccccc3nc21` [compound 1], the “SI A549” value is listed as 3.7.

Tested on: PC3
Assay: not given
Set-up: method as in earlier work
Settings: MTT assay; cited from earlier work
In the case of `O=C(NCCCl)NCCCCN1c2cc(Cl)ccc2Sc2cc3ccccc3nc21` [compound 15], the IC50 is listed as 76.6 ± 9.8 µM.
For `CN(C)CCCN1c2cc(Cl)ccc2Sc2cc3ccccc3nc21` [compound 2], the IC50 is listed as 52.1 ± 7.1 µM.

Same assay, conditions: selectivity index vs HaCaT; cited from earlier work
In the case of `O=C(NCCCl)NCCCCN1c2cc(Cl)ccc2Sc2cc3ccccc3nc21` [compound 15], the “SI PC3” value is listed as 0.1.
For `CN(C)CCCN1c2cc(Cl)ccc2Sc2cc3ccccc3nc21` [compound 2], the “SI PC3” value is listed as 1.2.
For `CS(=O)(=O)NCCCCN1c2cc(Cl)ccc2Sc2cc3ccccc3nc21` [compound 16], the “SI PC3” value is given as 1.0.

Tested on: HaCaT cells
Assay: not given
Settings: MTT assay, normal cells; cited from earlier work
For `O=C(NCCCl)NCCCCN1c2cc(Cl)ccc2Sc2cc3ccccc3nc21` [compound 15], the IC50 is given as 1.1 ± 0.3 µM.
In the case of `CN(C)CCCN1c2cc(Cl)ccc2Sc2cc3ccccc3nc21` [compound 2], the IC50 is listed as 62.3 ± 2.5 µM.
For `CS(=O)(=O)NCCCCN1c2cc(Cl)ccc2Sc2cc3ccccc3nc21` [compound 16], the IC50 is listed as under 100 µM.
For `CCOC(=O)NCCCCN1c2cc(Cl)ccc2Sc2cc3ccccc3nc21` [compound 14], the IC50 is given as under 100 µM.
In the case of `CCN(CC)CCN1c2cc(Cl)ccc2Sc2cc3ccccc3nc21` [compound 1], the IC50 is given as under 100 µM.

Same assay, conditions: in words; cited from earlier work
In the case of `CN(C)CCCN1c2cc(Cl)ccc2Sc2cc3ccccc3nc21` [compound 2], the “cytotoxic effects on HaCaT cells” value is given as “no cytotoxic effects”.
In the case of `CS(=O)(=O)NCCCCN1c2cc(Cl)ccc2Sc2cc3ccccc3nc21` [compound 16], the “cytotoxic effects on HaCaT cells” value is given as “no cytotoxic effects; also recorded: lack of toxicity to non-cancer cells”.

Tested on: not listed separately
Assay: RP-TLC lipophilicity (RM0, log PTLC, C0), silica gel RP-18F254, acetone/TRIS buffer pH 7.4
Assay type: physicochemical
Settings: RP-TLC, RM extrapolated to 0% acetone, TRIS buffer pH 7.4
Procedure: In connection with this, in the next stage of the study, the parameters of lipophilicity of the tested compounds were determined experimentally. […] This technique was used to determine the retardation coefficient Rf for each compound in eight mobile phases consisting of acetone and Tris buffer in different volume ratios (50–85% acetone). Next, the Rf values were converted to the chromatographic parameter RM, and then the obtained values were extrapolated to 0% acetone content in the mobile phase obtaining the lipophilicity parameter RM0 (Table S2).
The parameter RM0 can be correlated to an experimental log P lipophilicity parameter of chemical molecules (log PTLC) by applying a calibration curve. The calibration curve was obtained by determining the Rf value for standard substances with a known log Plit value using the RP-TLC method under conditions analogous to those of the tested substances. After calculating the RM and RM0 values, the dependence of the log Plit parameter on the experimentally obtained RM0 values for standards was determined (Table 2).
The chromatographic parameter of lipophilicity was determined by means of Soczewiński–Wachtmeister’s method. […] The acetone ratio was 50 to 85% (v/v) in increments of 5%. The tested compounds in the form of an ethanol solution at a concentration of 2.0 mg/mL each were spotted on chromatographic plates at an amount of 2 µL each. Before analysis, the chromatography chamber (Camag, Switzerland) was saturated with the mobile phase (50 mL) for 30 min. After development at 20 ± 2 °C and subsequent drying, the chromatograms were observed under UV light at 254 nm by using a Camag UV lamp (Muttenz, Switzerland). Each analysis was performed in triplicate. The average value of the retardation factor (Rf) was used to calculate RM using Equation (1):(1) RM=log(1−Rf/Rf)
In addition, the chromatographic parameter of lipophilicity RM0 and b value allowed the determination of the chromatography hydrophobic index C0 by using the following formula:(3) C0=− RM0/b
Compound `O=C1c2ccccc2C(=O)N1CCCCN1c2cc(Cl)ccc2Sc2cc3ccccc3nc21` [compound 12] has an RM0 of 4.41.
Compound `Clc1ccc(C(c2ccc(Cl)cc2)C(Cl)(Cl)Cl)cc1` [p,p’-DDT, reference compound] has an RM0 of 4.69.
`O=C(O)c1ccccc1` [benzoic acid, reference compound] showed an RM0 of 1.16.
Compound `O=C1c2ccccc2C(=O)N1CCCN1c2cc(Cl)ccc2Sc2cc3ccccc3nc21` [compound 6] has an RM0 of 4.12.
Compound `O=C(NCCCl)NCCCCN1c2cc(Cl)ccc2Sc2cc3ccccc3nc21` [compound 15] has an RM0 of 3.59.
Work on `CN(C)CCCN1c2cc(Cl)ccc2Sc2cc3ccccc3nc21` [compound 2] yielded an RM0 of 3.77.
`CC(=O)Nc1ccccc1` [acetanilide, reference compound] gave an RM0 of 0.78.
Compound `CN(C)CCCN1c2ccccc2Sc2ccc(Cl)cc21` [compound 18, chlorpromazine, reference compound] has an RM0 of 3.41.
Compound `CS(=O)(=O)NCCCCN1c2cc(Cl)ccc2Sc2cc3ccccc3nc21` [compound 16] has an RM0 of 3.65.
With `CCOC(=O)NCCCCN1c2cc(Cl)ccc2Sc2cc3ccccc3nc21` [compound 14] the RM0 was 4.06.
In the case of `CCN(CC)CCN1c2cc(Cl)ccc2Sc2cc3ccccc3nc21` [compound 1], the RM0 is reported as 3.98.

Same assay, conditions: chromatography hydrophobic index, C0 = −RM0/b
`O=C1c2ccccc2C(=O)N1CCCCN1c2cc(Cl)ccc2Sc2cc3ccccc3nc21` [compound 12] gave a C0 of 85.47.
Compound `O=C1c2ccccc2C(=O)N1CCCN1c2cc(Cl)ccc2Sc2cc3ccccc3nc21` [compound 6] has a C0 of 82.90.
`O=C(NCCCl)NCCCCN1c2cc(Cl)ccc2Sc2cc3ccccc3nc21` [compound 15] gave a C0 of 76.22.
`CN(C)CCCN1c2cc(Cl)ccc2Sc2cc3ccccc3nc21` [compound 2] gave a C0 of 70.60.
`CN(C)CCCN1c2ccccc2Sc2ccc(Cl)cc21` [compound 18, chlorpromazine, reference compound] gave a C0 of 67.79.
Compound `CS(=O)(=O)NCCCCN1c2cc(Cl)ccc2Sc2cc3ccccc3nc21` [compound 16] has a C0 of 76.36.
For `CCOC(=O)NCCCCN1c2cc(Cl)ccc2Sc2cc3ccccc3nc21` [compound 14], the C0 was 82.86.
Work on `CCN(CC)CCN1c2cc(Cl)ccc2Sc2cc3ccccc3nc21` [compound 1] yielded a C0 of 69.58.

Same assay, conditions: from RM0 by calibration curve log PTLC = 1.2862RM0 + 0.2061
`O=C1c2ccccc2C(=O)N1CCCCN1c2cc(Cl)ccc2Sc2cc3ccccc3nc21` [compound 12] gave a chromatographic logP of 5.88.
For `Clc1ccc(C(c2ccc(Cl)cc2)C(Cl)(Cl)Cl)cc1` [p,p’-DDT, reference compound], the “log PTLC” value was 6.24.
With `O=C1c2ccccc2C(=O)N1CCCN1c2cc(Cl)ccc2Sc2cc3ccccc3nc21` [compound 6] the chromatographic logP was 5.5.
Work on `O=C(NCCCl)NCCCCN1c2cc(Cl)ccc2Sc2cc3ccccc3nc21` [compound 15] yielded a chromatographic logP of 4.82.
For `CN(C)CCCN1c2cc(Cl)ccc2Sc2cc3ccccc3nc21` [compound 2], the “log PTLC” value was 5.05.
For `CC(=O)Nc1ccccc1` [acetanilide, reference compound], the “log PTLC” value was 1.21.
With `CN(C)CCCN1c2ccccc2Sc2ccc(Cl)cc21` [compound 18, chlorpromazine, reference compound] the chromatographic logP was 4.59.
Compound `CS(=O)(=O)NCCCCN1c2cc(Cl)ccc2Sc2cc3ccccc3nc21` [compound 16] has a chromatographic logP of 4.9.
Compound `CCOC(=O)NCCCCN1c2cc(Cl)ccc2Sc2cc3ccccc3nc21` [compound 14] has a chromatographic logP of 5.43.
`CCN(CC)CCN1c2cc(Cl)ccc2Sc2cc3ccccc3nc21` [compound 1] showed a chromatographic logP of 5.33.

Tested on: not given
Assay: not given
Settings: standard for calibration curve; cited from earlier work
In the case of `Clc1ccc(C(c2ccc(Cl)cc2)C(Cl)(Cl)Cl)cc1` [p,p’-DDT, reference compound], the “log Plit” value is listed as 6.38 [37].
For `CC(=O)Nc1ccccc1` [acetanilide, reference compound], the “log Plit” value is listed as 1.21 [35].
In the case of `c1ccc2cc3ccccc3cc2c1` [anthracene, reference compound], the “log Plit” value is listed as 4.45 [36].

Tested on: standard strains of staphylococci
Assay: not given
Settings: mainly against standard strains of staphylococci; cited from earlier work
In the case of `O=C(NCCCl)NCCCCN1c2cc(Cl)ccc2Sc2cc3ccccc3nc21` [compound 15], the antibacterial activity is listed as “moderate antibacterial activity”.
In the case of `CN(C)CCCN1c2cc(Cl)ccc2Sc2cc3ccccc3nc21` [compound 2], the antibacterial activity is listed as “moderate antibacterial activity”.
In the case of `CCN(CC)CCN1c2cc(Cl)ccc2Sc2cc3ccccc3nc21` [compound 1], the antibacterial activity is given as “moderate antibacterial activity”.

Same assay, conditions: standard strains; cited from earlier work
In the case of `O=C(NCCCl)NCCCCN1c2cc(Cl)ccc2Sc2cc3ccccc3nc21` [compound 15], the MIC is listed as 2 to 8 µg/mL.
